Paper PMC12505902, “Inhibitors of trehalose-6-phosphate synthase activity in fungal pathogens compromise thermal tolerance pathways” (mBio, 2025)

Test system: C. auris (B11220)
Experiment: MIC dose-response assay in YPD
Type: cell-based
Conditions: Candidozyma auris
Procedure: We tested the effects of 4456dh on live cells by determining the minimal inhibitory concentration causing 80% growth reduction (MIC80). Wild-type (WT) C. albicans and C. auris cells were incubated with 4456dh in yeast-peptone-dextrose (YPD) medium at 42°C and 39°C, respectively (Fig. 4A). […] 4456dh inhibited the growth of C. auris with an MIC80 of 7 mM at 39°C (Fig. 4A). The MIC80 increased at 30°C to greater than 13 mM (Fig. S7A).
Fig 4 4456dh inhibits the growth of Candida and Cryptococcus species. Two-fold dose response assays were performed against (A) C. albicans at 42°C and C. auris at 39°C, (B) C. glabrata at 42°C, and (C) C. neoformans, C. deneoformans, and C. gattii at 37°C. 4456dh was administered at the concentrations indicated. Cultures were grown in YPD at the listed temperatures for 48 hours for Candida species and 72 hours for Cryptococcus species. Experimental temperatures reflect the temperatures at which the fungi experience heat stress. Left: relative growth of treated samples was calculated by averaging technical triplicates and normalizing the OD600 of each treated well to the average OD600 of the untreated WT controls, after the absorbance due to the compound was subtracted. The MIC80 values, calculated based on the OD600 values, are indicated in the white text on each heat map. […]
102 determined by identifying the inflection point of the derivative data. […]
104 The catalytic activity of C. albicans Tps1 and C. neoformans Tps1 was measured via a continuous […]
110 bottomed 96-well microtiter plates and the decrease in absorbance at 340 nm during the initial
111 reaction rate was recorded using a plate reader (Tecan). The decrease in absorbance was
112 analyzed for the first 200s of the kinetic reaction. […]
116 the overnight cultures was quantified by measuring the OD600 and corrected for the background
117 absorbance of the medium. Antifungal potency for 4456dh was assessed by minimum inhibitory […]
124 technical replicates. Growth, as determined by a reading of absorbance at 600 nm, was
125 normalized to untreated controls and was corrected for the absorbance of 4456dh in the YPD […]

## Cn1cc(-c2csc(NC(=O)Cc3ccccn3)n2)cn1 [Compound 4456dh]
30°C, YPD
  MIC80: > 13 mM
39°C, YPD, 48 hours
  MIC80: 7 mM
Supplemental Table 5, This publication
  MIC80: 2780 µg/mL
